Laboratory results as given in publication PMC6155239, “Targeting PFKFB3 radiosensitizes cancer cells and suppresses homologous recombination” (Nature Communications, 2018).

Key:
U2OS cells [1] = assay: Clonogenic survival, U2OS; assay type: cell-based; conditions: U2OS pre-treated prior to IR, colonies 10 days post treatments
Protocol: U2OS cells were transfected with indicated siRNAs and 24 h later exposed to IR (2 Gy) or left untreated and allowed to recover for 4 h. One-hundred U2OS cells were then seeded into 6-well plates and after 10 days colonies were fixed and stained with 4% methylene blue (Sigma Aldrich) in methanol. BJ TERT (500 cells), BJ RAS (200 cells), or U2OS (200 cells) were seeded into 6-well plates 24 h prior to treatment with inhibitors as indicated or vehicle for 24 h and then subjected to IR (2 Gy). The inhibitors were washed out 72 h later and colonies were fixed 4 days (BJ RAS) or 7 days (BJ TERT) later with 4% methylene blue in methanol.

U2OS cells [2] = assay: Cell cycle analysis (propidium iodide, flow cytometry); assay type: cell-based; conditions: 24 h post-IR
Protocol: For cell cycle analysis, cells were treated or transfected with siRNA as described and harvested at the indicated time points with trypsin. For studies using IR, cells were exposed to IR with 2 Gy, and harvested at the indicated time points with trypsin. The cells were washed in PBS and fixed with 70% ethanol in PBS at 4 °C for 1 h and then stored at −20 °C until staining. Ethanol was removed by centrifugation and cells were then washed in PBS before staining DNA with propidium iodide (PI) solution containing 40 μg/mL PI, 100 μg/mL RNase A, and 0.1% Triton X-100 (Sigma Aldrich). Cells were analyzed by flow cytometry on a FACS Navios (Beckman Coulter) using Kaluza software.

U2OS cells [3] = assay: IR-induced Mre11 / Nbs1 foci formation; assay type: cell-based; conditions: treatment prior to IR (6 Gy, 2 h recovery)
Protocol: Cells were grown on sterilized coverslips and fixed with 4% paraformaldehyde (PFA) (Santa Cruz) and 2% sucrose (Sigma Aldrich) for 15 min at room temperature. They were then permeabilized with 0.2% NP-40 (Thermo Scientific) for 10 min at room temperature followed by 30 min of blocking in blocking buffer (2 or 3% BSA, 5% glycerol, 0.1% Tween 20 (Sigma Aldrich)). Coverslips were subsequently incubated for 1, 2, or 24 h in primary antibody and 40 min in secondary antibody diluted in blocking buffer, DNA was stained with DAPI for 10 min. The coverslips were mounted with Prolonged Gold mounting medium (Invitrogen). Images were acquired with a Zeiss LSM 780 microscope using a 40× or 63× oil immersion lens and processed in ImageJ and CellProfiler.

[4] = system: peripheral blood mononuclear cells (PBMCs); assay: Viability of PBMCs; assay type: cell-based
U2OS cells [5] = assay: DNA fiber assay; assay type: cell-based; conditions: 10 μM
Protocol: 1 × 10^5 cells were seeded into 6-well plates, 24 h later cells were treated with the indicated inhibitors or nucleosides, and 24 h later DNA was labeled with 25 μM CldU (Sigma, C6891) in pre-warmed DMEM for 20 min, washed and then labeled with 250 μM IdU (Sigma I7125) in pre-warmed DMEM for 20 min, before harvesting by scraping in cold PBS. Harvested cells were diluted to 1 × 10^6 cells/mL, spreading and staining was performed as described previously described. Fluorescence images were captured using a Zeiss LSM 780 inverted confocal microscope using a 63 × 1.4 oil immersion objective, excitation wavelengths of 488 and 555 nm, and analyzed using the ImageJ software. At least 300 unidirectional forks labeled with both CldU and IdU were measured for every condition.

U2OS cells [6] = assay: EdU labeling (DNA synthesis); assay type: cell-based; conditions: absence of IR
Protocol: U2OS cells were seeded on sterilized slides and treated with 10 or 30 μM of 757 for 6 h, or 2 mM of hydroxyurea (HU) for 3 h (DMSO was used as control vehicle). Last 40 min of treatment, 10 μM of the thymidine analogue 5-ethynyl-2′-deoxyuridine (EdU) (Sigma Aldrich, catalog no. 1T511285) was added; cells were washed with PBS and then fixed with paraformaldehyde 4% and sucrose 2%. For the detection of incorporated EdU, the Click IT reaction was performed in accordance with the supplier’s recommendations (Life Technologies/ThermoFisher Scientific). Images were acquired with a Zeiss LSM 780 microscope using a 40× oil immersion lens and processed in ImageJ and CellProfiler (version 2.2.0).

CSF1R = biological target: T1, CSF1R (Homo sapiens, UniProt P07333); assay: KINOMEscan; assay type: binding; conditions: 2000 nM; read-out: Percent Control
T1 construct: purchased DiscoverX (Eurofins) KINOMEscan / scanEDGE, inferred from the naming style

ERK1 = biological target: T2, ERK1 (Homo sapiens, UniProt P27361); assay: KINOMEscan; assay type: binding; conditions: 2000 nM; read-out: Percent Control
T2 construct: purchased DiscoverX (Eurofins) KINOMEscan / scanEDGE, inferred from the naming style

BMPR2 = biological target: T3, BMPR2 (Homo sapiens, UniProt Q13873); assay: KINOMEscan; assay type: binding; conditions: 2000 nM; read-out: Percent Control
T3 construct: purchased DiscoverX (Eurofins) KINOMEscan / scanEDGE, inferred from the naming style

AKT2 = biological target: T4, AKT2 (Homo sapiens, UniProt P31751); assay: KINOMEscan; assay type: binding; conditions: 2000 nM; read-out: Percent Control
T4 construct: purchased DiscoverX (Eurofins) KINOMEscan / scanEDGE, inferred from the naming style

CDK2 = biological target: T5, CDK2 (Homo sapiens, UniProt P24941); assay: KINOMEscan; assay type: binding; conditions: 2000 nM; read-out: Percent Control
T5 construct: purchased DiscoverX (Eurofins) KINOMEscan / scanEDGE, inferred from the naming style

CSNK1D = biological target: T6, CSNK1D (Homo sapiens, UniProt P48730); assay: KINOMEscan; assay type: binding; conditions: 2000 nM; read-out: Percent Control
T6 construct: purchased DiscoverX (Eurofins) KINOMEscan / scanEDGE, inferred from the naming style

ALK = biological target: T7, ALK (Homo sapiens, UniProt Q9UM73); assay: KINOMEscan; assay type: binding; conditions: 2000 nM; read-out: Percent Control
T7 construct: purchased DiscoverX (Eurofins) KINOMEscan / scanEDGE, inferred from the naming style

BRAF = biological target: T8, BRAF (Homo sapiens, UniProt P15056); assay: KINOMEscan; assay type: binding; conditions: 2000 nM; read-out: Percent Control
T8 construct: purchased DiscoverX (Eurofins) KINOMEscan / scanEDGE, inferred from the naming style

ERBB4 = biological target: T9, ERBB4 (Homo sapiens, UniProt Q15303); assay: KINOMEscan; assay type: binding; conditions: 2000 nM; read-out: Percent Control
T9 construct: purchased DiscoverX (Eurofins) KINOMEscan / scanEDGE, inferred from the naming style

[7] = biological target: T10, ABL1(T315I)-phosphorylated (Homo sapiens, UniProt P00519, T315I); assay: KINOMEscan; assay type: binding; conditions: 2000 nM; read-out: Percent Control
T10 construct: purchased DiscoverX (Eurofins) KINOMEscan / scanEDGE, inferred from the naming style

EGFR(L858R) = biological target: T11, EGFR(L858R) (Homo sapiens, UniProt P00533, L858R); assay: KINOMEscan; assay type: binding; conditions: 2000 nM; read-out: Percent Control
T11 construct: purchased DiscoverX (Eurofins) KINOMEscan / scanEDGE, inferred from the naming style

FLT3 = biological target: T12, FLT3 (Homo sapiens, UniProt P36888); assay: KINOMEscan; assay type: binding; conditions: 2000 nM; read-out: Percent Control
T12 construct: purchased DiscoverX (Eurofins) KINOMEscan / scanEDGE, inferred from the naming style

CDK11 = biological target: T13, CDK11 (Homo sapiens, UniProt Q9BWU1); assay: KINOMEscan; assay type: binding; conditions: 2000 nM; read-out: Percent Control
T13 construct: purchased DiscoverX (Eurofins) KINOMEscan / scanEDGE, inferred from the naming style

EGFR = biological target: T14, EGFR (Homo sapiens, UniProt P00533); assay: KINOMEscan; assay type: binding; conditions: 2000 nM; read-out: Percent Control
T14 construct: purchased DiscoverX (Eurofins) KINOMEscan / scanEDGE, inferred from the naming style

ERBB2 = biological target: T15, ERBB2 (Homo sapiens, UniProt P04626); assay: KINOMEscan; assay type: binding; conditions: 2000 nM; read-out: Percent Control
T15 construct: purchased DiscoverX (Eurofins) KINOMEscan / scanEDGE, inferred from the naming style

T13 sequence (Q9BWU1 whole entry): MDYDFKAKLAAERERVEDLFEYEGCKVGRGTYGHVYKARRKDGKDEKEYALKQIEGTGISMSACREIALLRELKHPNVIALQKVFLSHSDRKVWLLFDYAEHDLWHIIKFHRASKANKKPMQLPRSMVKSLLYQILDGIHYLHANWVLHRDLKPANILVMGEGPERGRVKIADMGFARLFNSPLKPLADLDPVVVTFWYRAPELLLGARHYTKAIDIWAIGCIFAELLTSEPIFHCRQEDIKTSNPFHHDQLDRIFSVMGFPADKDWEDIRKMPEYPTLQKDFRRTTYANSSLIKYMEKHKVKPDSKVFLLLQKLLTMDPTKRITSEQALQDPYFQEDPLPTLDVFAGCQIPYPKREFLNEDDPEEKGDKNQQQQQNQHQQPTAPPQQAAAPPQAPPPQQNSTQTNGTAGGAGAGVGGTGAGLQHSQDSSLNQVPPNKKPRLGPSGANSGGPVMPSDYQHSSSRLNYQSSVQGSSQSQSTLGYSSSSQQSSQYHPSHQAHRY
T2 sequence (P27361 whole entry): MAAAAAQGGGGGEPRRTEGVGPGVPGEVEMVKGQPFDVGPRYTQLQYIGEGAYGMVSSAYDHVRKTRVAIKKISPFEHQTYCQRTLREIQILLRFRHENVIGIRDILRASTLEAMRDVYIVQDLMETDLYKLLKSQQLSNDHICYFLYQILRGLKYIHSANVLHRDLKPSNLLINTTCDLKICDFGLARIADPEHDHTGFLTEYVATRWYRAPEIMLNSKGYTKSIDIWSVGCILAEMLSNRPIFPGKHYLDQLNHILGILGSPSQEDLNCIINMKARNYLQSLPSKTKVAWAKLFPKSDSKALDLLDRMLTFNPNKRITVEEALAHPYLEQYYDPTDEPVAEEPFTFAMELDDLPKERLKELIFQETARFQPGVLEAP
T6 sequence (P48730 whole entry): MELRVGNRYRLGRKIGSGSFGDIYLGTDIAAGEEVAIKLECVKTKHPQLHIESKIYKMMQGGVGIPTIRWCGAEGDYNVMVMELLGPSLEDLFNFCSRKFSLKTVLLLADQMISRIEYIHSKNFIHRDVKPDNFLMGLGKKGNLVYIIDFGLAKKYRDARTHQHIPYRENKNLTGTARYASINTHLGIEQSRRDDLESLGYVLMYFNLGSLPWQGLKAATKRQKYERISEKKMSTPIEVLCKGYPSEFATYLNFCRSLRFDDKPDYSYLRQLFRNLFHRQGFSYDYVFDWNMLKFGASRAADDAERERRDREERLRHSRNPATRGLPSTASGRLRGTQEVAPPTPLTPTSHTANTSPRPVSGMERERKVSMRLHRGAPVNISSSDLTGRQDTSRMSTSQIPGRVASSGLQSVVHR
T8 sequence (P15056 whole entry): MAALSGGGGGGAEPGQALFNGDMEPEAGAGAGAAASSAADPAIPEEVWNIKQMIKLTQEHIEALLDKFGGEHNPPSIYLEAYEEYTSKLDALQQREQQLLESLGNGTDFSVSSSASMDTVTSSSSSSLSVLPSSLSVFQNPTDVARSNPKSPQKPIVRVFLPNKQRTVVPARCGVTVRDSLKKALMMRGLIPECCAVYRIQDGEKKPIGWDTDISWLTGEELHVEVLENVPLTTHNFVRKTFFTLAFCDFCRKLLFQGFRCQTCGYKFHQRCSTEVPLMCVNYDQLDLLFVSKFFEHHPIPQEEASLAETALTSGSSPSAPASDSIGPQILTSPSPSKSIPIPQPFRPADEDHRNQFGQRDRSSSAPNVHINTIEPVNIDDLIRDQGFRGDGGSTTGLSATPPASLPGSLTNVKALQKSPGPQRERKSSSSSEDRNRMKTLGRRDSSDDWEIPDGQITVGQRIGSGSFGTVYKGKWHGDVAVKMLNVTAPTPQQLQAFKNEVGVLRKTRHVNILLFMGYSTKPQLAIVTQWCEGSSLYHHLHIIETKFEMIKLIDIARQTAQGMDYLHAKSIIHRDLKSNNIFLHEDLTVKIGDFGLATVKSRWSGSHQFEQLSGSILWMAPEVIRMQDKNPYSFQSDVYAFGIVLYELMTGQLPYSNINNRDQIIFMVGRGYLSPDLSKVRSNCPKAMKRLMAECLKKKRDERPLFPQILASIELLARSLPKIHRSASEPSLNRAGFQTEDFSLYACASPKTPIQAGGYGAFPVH
T4 sequence (P31751 whole entry): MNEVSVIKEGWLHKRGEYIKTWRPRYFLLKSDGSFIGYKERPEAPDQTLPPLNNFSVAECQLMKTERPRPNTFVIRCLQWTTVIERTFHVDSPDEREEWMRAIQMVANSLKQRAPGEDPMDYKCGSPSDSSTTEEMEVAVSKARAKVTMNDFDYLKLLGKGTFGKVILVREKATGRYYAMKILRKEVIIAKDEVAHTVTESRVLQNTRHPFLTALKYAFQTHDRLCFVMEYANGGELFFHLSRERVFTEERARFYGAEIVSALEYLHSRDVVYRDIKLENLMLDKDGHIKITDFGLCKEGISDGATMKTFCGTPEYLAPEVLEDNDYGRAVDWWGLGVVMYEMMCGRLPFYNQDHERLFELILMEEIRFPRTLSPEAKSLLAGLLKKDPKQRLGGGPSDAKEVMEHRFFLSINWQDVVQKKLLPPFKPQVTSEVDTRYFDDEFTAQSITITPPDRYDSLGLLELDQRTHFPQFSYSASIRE
T9 sequence (Q15303 26-1308): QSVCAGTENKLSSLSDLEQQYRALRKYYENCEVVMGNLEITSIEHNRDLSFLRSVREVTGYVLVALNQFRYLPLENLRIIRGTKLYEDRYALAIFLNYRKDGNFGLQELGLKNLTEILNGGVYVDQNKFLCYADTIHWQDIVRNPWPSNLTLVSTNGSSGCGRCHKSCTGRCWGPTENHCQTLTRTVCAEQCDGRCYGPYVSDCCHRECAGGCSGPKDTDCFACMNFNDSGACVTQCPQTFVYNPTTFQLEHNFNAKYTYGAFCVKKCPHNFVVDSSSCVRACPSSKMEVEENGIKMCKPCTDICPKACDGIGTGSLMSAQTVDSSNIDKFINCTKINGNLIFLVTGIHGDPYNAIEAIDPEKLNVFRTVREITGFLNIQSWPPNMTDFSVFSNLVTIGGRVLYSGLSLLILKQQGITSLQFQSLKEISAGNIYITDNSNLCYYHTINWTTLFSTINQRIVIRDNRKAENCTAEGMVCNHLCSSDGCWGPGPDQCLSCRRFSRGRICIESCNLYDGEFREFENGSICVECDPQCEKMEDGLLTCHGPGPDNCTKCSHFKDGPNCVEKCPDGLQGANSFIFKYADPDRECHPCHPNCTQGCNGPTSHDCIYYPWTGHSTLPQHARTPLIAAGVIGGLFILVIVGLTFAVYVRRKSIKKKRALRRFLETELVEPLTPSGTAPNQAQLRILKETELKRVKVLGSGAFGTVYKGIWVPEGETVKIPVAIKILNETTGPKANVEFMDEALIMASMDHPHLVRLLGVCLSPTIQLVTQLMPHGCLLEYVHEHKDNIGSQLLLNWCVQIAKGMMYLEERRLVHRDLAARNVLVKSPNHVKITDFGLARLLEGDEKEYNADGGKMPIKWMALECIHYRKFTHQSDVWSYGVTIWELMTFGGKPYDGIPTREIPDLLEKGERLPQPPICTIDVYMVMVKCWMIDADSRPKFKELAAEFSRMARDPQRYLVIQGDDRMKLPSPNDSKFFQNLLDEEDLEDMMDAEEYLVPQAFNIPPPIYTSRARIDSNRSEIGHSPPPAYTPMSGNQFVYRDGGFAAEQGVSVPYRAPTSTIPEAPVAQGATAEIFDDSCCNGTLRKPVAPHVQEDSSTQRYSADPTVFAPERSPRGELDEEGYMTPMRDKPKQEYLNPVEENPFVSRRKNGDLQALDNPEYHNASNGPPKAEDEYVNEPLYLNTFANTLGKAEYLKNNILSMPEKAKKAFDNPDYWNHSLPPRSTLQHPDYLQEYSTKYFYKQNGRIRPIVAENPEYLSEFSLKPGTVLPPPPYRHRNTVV
T1 sequence (P07333 20-972): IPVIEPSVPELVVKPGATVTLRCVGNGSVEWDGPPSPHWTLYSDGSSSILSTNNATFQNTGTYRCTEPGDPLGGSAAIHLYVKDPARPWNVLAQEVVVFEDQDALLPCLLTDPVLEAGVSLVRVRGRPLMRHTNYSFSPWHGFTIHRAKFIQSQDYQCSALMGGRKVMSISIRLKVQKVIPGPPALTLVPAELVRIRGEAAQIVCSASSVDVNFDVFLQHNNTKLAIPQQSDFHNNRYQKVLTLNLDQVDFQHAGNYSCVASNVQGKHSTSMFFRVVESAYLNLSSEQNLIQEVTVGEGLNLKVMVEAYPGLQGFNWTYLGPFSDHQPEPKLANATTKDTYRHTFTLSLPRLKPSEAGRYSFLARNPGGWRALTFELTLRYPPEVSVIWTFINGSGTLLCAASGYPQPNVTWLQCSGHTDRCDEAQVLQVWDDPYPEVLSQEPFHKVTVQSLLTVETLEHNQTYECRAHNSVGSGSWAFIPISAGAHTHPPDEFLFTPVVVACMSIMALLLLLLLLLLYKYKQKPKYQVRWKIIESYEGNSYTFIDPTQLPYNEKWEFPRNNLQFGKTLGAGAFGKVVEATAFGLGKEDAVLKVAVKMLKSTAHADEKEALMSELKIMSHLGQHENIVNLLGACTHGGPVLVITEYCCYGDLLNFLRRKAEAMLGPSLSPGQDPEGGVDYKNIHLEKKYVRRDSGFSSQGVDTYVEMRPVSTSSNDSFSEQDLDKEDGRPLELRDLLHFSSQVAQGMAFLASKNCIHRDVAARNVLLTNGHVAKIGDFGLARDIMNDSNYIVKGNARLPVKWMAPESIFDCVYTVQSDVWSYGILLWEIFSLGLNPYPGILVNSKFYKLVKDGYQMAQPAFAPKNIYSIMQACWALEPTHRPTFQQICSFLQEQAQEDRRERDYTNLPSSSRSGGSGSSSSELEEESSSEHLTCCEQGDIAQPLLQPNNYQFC

## O=C(OCCO)c1ccc(NS(=O)(=O)c2cccc(-c3cc(F)ccc3O)c2)cc1O [KAN0438757, 2-Hydroxyethyl-4-{[(5′-fluoro-2′-hydroxybiphenyl-3-yl)sulfonyl]amino}-2-hydroxybenzoate]
U2OS cells [1]
  clonogenic survival in combination with IR (in words): dose-dependent radiosensitization
U2OS cells [2]
  accumulation of cells in G2/M phase upon IR (in words): increased accumulation of cells in the G2/M phase
U2OS cells [3]
  IR-induced Mre11 or Nbs1 foci formation (in words): did not affect
[4]
  effect on viability of PBMCs: not affected
U2OS cells [5]
  incorporation of CldU and IdU / replication fork speed (in words): severely decreased
U2OS cells [6]
  EdU intensity per cell in EdU-positive population (in words): decreased EdU intensity per cell

## O=C(O)c1ccc(NS(=O)(=O)c2cccc(-c3cc(F)ccc3O)c2)cc1O [KAN0438241, 4-{[(5′-Fluoro-2′-hydroxybiphenyl-3-yl)sulfonyl]amino}-2-hydroxybenzoic acid]
CSF1R
  remaining binding at 2 µM: 90%
ERK1
  remaining binding at 2 µM: 99%
BMPR2
  remaining binding at 2 µM: 88%
AKT2
  remaining binding at 2 µM: 97%
CDK2
  remaining binding at 2 µM: 100%
CSNK1D
  remaining binding at 2 µM: 100%
ALK
  remaining binding at 2 µM: 100%
BRAF
  remaining binding at 2 µM: 100%
ERBB4
  remaining binding at 2 µM: 96%
[7]
  remaining binding at 2 µM: 100%
EGFR(L858R)
  remaining binding at 2 µM: 90%
FLT3
  remaining binding at 2 µM: 94%
CDK11
  remaining binding at 2 µM: 96%
EGFR
  remaining binding at 2 µM: 93%
ERBB2
  remaining binding at 2 µM: 92%
